From patent EP2746260A1, “Substituted [1,2,4]triazole and imidazole compounds” (BASF SE, priority 2012, dated 2014)

Experiments:
Pyricularia oryzae = type: cell-based; settings: relative growth vs compound-free control (100%), 405 nm, 7 days after inoculation
Botrytis cinerea [1] = test: Long lasting control of Botrytis cinerea on leaves of green pepper (Botrci P7), green house; type: in vivo; settings: 16ppm spray, inoculated 7 days after treatment, % diseased leaf area after 5 days, untreated control 90
Method: (§1) The stock solution were prepared: a mixture of acetone and/or dimethylsulfoxide and the wetting agent/emulsifier Wettol, which is based on ethoxylated alkylphenoles, in a relation (volume) solvent-emulsifier of 99 to 1 was added to 25 mg of the compound to give a total of 5 ml. Water was then added to total volume of 100 ml. This stock solution was diluted with the described solvent-emulsifier-water mixture to the given concentration.
3. Long lasting control of Botrytis cinerea on leaves of green pepper (Botrci P7)
Young seedlings of green pepper were grown in pots to the 4 to 5 leaf stage. These plants were sprayed to run-off with an aqueous suspension, containing the concentration of active ingredient or their mixture mentioned in the table below. The plants were then cultivated in the greenhouse for 7 days and then inoculated with an aqueous biomalt solution containing the spore suspension of Botrytis cinerea. Then the plants were immediately transferred to a humid chamber. After 5 days at 22 to 24· C and a relative humidity close to 100 % the extent of fungal attack on the leaves was visually assessed as % diseased leaf area.

Puccinia recondita = test: Preventative control of brown rust on wheat (Puccrt P7), green house; type: in vivo; settings: 16ppm spray, inoculated seven days after treatment, % diseased leaf area, untreated control 90
Method: as §1
5. Preventative control of brown rust on wheat caused by Puccinia recondita (Puccrt P7)
The first two developed leaves of pot-grown wheat seedling were sprayed to run-off with an aqueous suspension, containing the concentration of active ingredient or their mixture as described below. Seven days later the plants were inoculated with spores of Puccinia recondita. To ensure the success the artificial inoculation, the plants were transferred to a humid chamber without light and a relative humidity of 95 to 99 % and 20 to 24· C for 24 h. Then the trial plants were cultivated for 6 days in a greenhouse chamber at 20-24 °C and a relative humidity between 65 and 70 %. The extent of fungal attack on the leaves was visually assessed as % diseased leaf area.

Botrytis cinerea [2] = test: Activity against the grey mold in the microtiterplate test (Botrci); type: cell-based; settings: relative growth vs compound-free control (100%), 405 nm, 7 days after inoculation
Phakopsora pachyrhizi = test: Protective control of soy bean rust on soy beans (Phakpa P1), green house; type: in vivo; settings: 150ppm spray, inoculated 1 day after treatment, % diseased leaf area, untreated control 70
Septoria tritici = test: Preventative control of leaf blotch on wheat (Septtr P1), green house; type: in vivo; settings: 150ppm spray, inoculated following day, % diseased leaf area after 4 weeks, untreated control 100
Method: as §1
4. Preventative control of leaf blotch on wheat caused by Septoria tritici (Septtr P1)
Leaves of pot-grown wheat seedling were sprayed to run-off with an aqueous suspension of the active compound or their mixture, prepared as described. The plants were allowed to air-dry. At the following day the plants were inoculated with an aqueous spore suspension of Septoria tritici. Then the trial plants were immediately transferred to a humid chamber at 18-22°C and a relative humidity close to 100 %. After 4 days the plants were transferred to a chamber with 18-22°C and a relative humidity close to 70 %. After 4 weeks the extent of fungal attack on the leaves was visually assessed as % diseased leaf area.

Botrytis cinerea [3] = test: Preventative fungicidal control of Botrytis cinerea on leaves of green pepper (Botrci P1), green house; type: in vivo; settings: 150ppm spray, inoculated next day, % diseased leaf area after 5 days, untreated control 100
Method: as §1
2. Preventative fungicidal control of Botrytis cinerea on leaves of green pepper (Botrci P1)
Young seedlings of green pepper were grown in pots to the 4 to 5 leaf stage. These plants were sprayed to run-off with an aqueous suspension, containing the concentration of active ingredient or their mixture mentioned in the table below. The next day the plants were inoculated with an aqueous biomalt solution containing the spore suspension of Botrytis cinerea. Then the plants were immediately transferred to a humid chamber. After 5 days at 22 to 24· C and a relative humidity close to 100 % the extent of fungal attack on the leaves was visually assessed as % diseased leaf area.

Row | Compound | Growth (%) at 8ppm Pyrior (Pyricularia oryzae) [%] | Growth (%) at 31ppm Botrci (Botrytis cinerea [2]) [%] | Growth (%) at 31ppm Pyrior (Pyricularia oryzae) [%] | Disease (%) at 150ppm Phakpa P1 (Phakopsora pachyrhizi) [%] | further results
1 | OC(Cc1ccccc1Cl)(Cn1ncnc1S)C1(Cl)CC1 (stereo not shown) [Comparative 1, reference compound] | 33 |  |  |  | 
2 | OC(Cc1ccccc1Cl)(Cn1cncn1)C1(Cl)CC1 (stereo not shown) [Comparative 2, reference compound] |  |  |  |  | Disease (%) at 16ppm Botrci P7 (Botrytis cinerea [1]): 30%; Disease (%) at 16ppm Puccrt P7 (Puccinia recondita): 50%
3 | CC(c1ccccc1Cl)C(O)(C(C)n1cncn1)C1(Cl)CC1 (stereo not shown) [Compound I-1, 3-(1-Chlorocyclopropyl)-2-(2-chlorophenyl)-4-(1,2,4-triazol-1-yl)pentan-3-ol] |  | 19 | 0 | 10 | 
4 | CC(n1cncn1)C(O)(Cc1ccccc1Cl)C1(Cl)CC1 (stereo not shown) [Compound I-3] |  | 1 | 0 | 0 | Disease (%) at 150ppm Septtr P1 (Septoria tritici): 3%; Disease (%) at 16ppm Botrci P7 (Botrytis cinerea [1]): 15%; Disease (%) at 16ppm Puccrt P7 (Puccinia recondita): 3%; Disease (%) at 150ppm Botrci P1 (Botrytis cinerea [3]): 0%
5 | CC(n1cncn1)C(O)(Cc1ccc(Oc2ccc(Cl)cc2)cc1Cl)C1(Cl)CC1 (stereo not shown) [Compound I-4] |  |  | 6 | 15 | 
6 | CC(n1cncn1)C(O)(Cc1ccc(-c2ccc(Cl)cc2)cc1Cl)C1(Cl)CC1 (stereo not shown) [Compound I-5] |  |  | 10 |  | 
7 | CC(n1ncnc1S)C(O)(Cc1ccccc1Cl)C1(Cl)CC1 (stereo not shown) [Compound I-6] | 6 |  | 0 | 0 | 
8 | CC(c1ccccc1Cl)C(O)(C(C)n1ncnc1S)C1(Cl)CC1 (stereo not shown) [Compound I-7] | 0 | 0 | 0 |  | 
